Experimental data reported in patent US20140135270A1, “MACROCYCLIC COMPOUNDS FOR INHIBITION OF INHIBITORS OF APOPTOSIS” (Ensemble Therapeutics Corp., priority 2012, published 2014).

Experiments:
His-BIR3 (241-356, XIAP) = target: T1, His-BIR3 (241-356, XIAP) (Homo sapiens, UniProt P98170); experiment: XIAP-BIR3/SMAC Homogeneous Time Resolved Fluorescence (HTRF) Assay; assay type: binding; details: fluorescein labeled SMAC peptide
T1 construct: additions of His-BIR3 (241-356, XIAP), fluorescein labeled SMAC peptide
T1 sequence (P98170 241-356): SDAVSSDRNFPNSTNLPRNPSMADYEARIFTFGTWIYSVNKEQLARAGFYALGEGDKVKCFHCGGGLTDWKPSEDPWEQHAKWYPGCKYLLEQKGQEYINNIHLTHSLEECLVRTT

[1] = target: T2, His-BIR2-3 (125-356, C202A/C213G, XIAP) (Homo sapiens, UniProt P98170, C202A/C213G); experiment: XIAP-BIR2-3 Dimeric SMAC Peptide Homogeneous Time Resolved Fluorescence (HTRF) Assay; assay type: binding; details: fluorescein labeled dimeric SMAC peptide
T2 construct: additions of His-BIR2-3 (125-356, C202A/C213G, XIAP), fluorescein labeled dimeric SMAC peptide
T2 sequence (P98170 125-356 C202A/C213G): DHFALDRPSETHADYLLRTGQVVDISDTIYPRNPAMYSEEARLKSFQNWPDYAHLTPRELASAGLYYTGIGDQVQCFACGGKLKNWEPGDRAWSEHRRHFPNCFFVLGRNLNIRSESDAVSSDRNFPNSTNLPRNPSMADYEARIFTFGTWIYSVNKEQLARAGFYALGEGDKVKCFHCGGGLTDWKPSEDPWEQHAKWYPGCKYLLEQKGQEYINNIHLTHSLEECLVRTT

IC50 (His-BIR3 (241-356, XIAP)) | IC50 [1] | Compound
0.131 µM | 0.0243 µM | CN[C@@H](C)C(=O)N[C@@H](Cc1c[nH]cn1)C(=O)N1C[C@@H]2C[C@H]1C(=O)N[C@@H](Cc1ccc3ccccc3c1)C(=O)N[C@H](C(=O)O)CCC(=O)N[C@H]1C[C@@H](C(=O)N[C@@H](Cc3ccc4ccccc4c3)C(=O)N[C@H](C(=O)O)Cc3ccc(cc3)OC/C=C/CO2)N(C(=O)[C@@H](NC(=O)[C@H](C)NC)C(C)(C)C)C1 [Example 59]
0.0795 µM | 0.0092 µM | CN[C@@H](C)C(=O)N[C@@H](Cc1ccccc1)C(=O)N1C[C@@H]2C[C@H]1C(=O)N[C@@H](Cc1ccc3ccccc3c1)C(=O)N[C@H](C(=O)O)CCC(=O)N[C@H]1C[C@@H](C(=O)N[C@@H](Cc3ccc4ccccc4c3)C(=O)N[C@H](C(=O)O)Cc3ccc(cc3)OC/C=C/CO2)N(C(=O)[C@@H](NC(=O)[C@H](C)NC)C(C)(C)C)C1 [Example 60]
0.0602 µM | 0.008 µM | CN[C@@H](C)C(=O)N[C@H](C(=O)N1C[C@@H]2C[C@H]1C(=O)N[C@@H](Cc1ccc3ccccc3c1)C(=O)N[C@H](C(=O)O)Cc1ccc(cc1)OC/C=C/CO[C@H]1C[C@@H](C(=O)N[C@@H](C(c3ccccc3)c3ccccc3)C(=O)N[C@H](C(=O)O)Cc3ccc(cc3)C(=O)N2)N(C(=O)[C@@H](NC(=O)[C@H](C)NC)C(C)(C)C)C1)C(C)(C)C [Example 62]
0.0179 µM | 0.0027 µM | CN[C@@H](C)C(=O)N[C@@H](CCC(=O)O)C(=O)N1C[C@@H]2C[C@H]1C(=O)N[C@@H](Cc1ccc3ccccc3c1)C(=O)N[C@H](C(=O)O)Cc1ccc(cc1)C(=O)N[C@H]1C[C@@H](C(=O)N[C@@H](Cc3ccc4ccccc4c3)C(=O)N[C@H](C(=O)O)Cc3ccc(cc3)OC/C=C/CO2)N(C(=O)[C@@H](NC(=O)[C@H](C)NC)C(C)(C)C)C1 [Example 63]
0.0366 µM | 0.0059 µM | CN[C@@H](C)C(=O)N[C@@H](CC(=O)O)C(=O)N1C[C@@H]2C[C@H]1C(=O)N[C@@H](Cc1ccc3ccccc3c1)C(=O)N[C@H](C(=O)O)Cc1ccc(cc1)C(=O)N[C@H]1C[C@@H](C(=O)N[C@@H](Cc3ccc4ccccc4c3)C(=O)N[C@H](C(=O)O)Cc3ccc(cc3)OC/C=C/CO2)N(C(=O)[C@@H](NC(=O)[C@H](C)NC)C(C)(C)C)C1 [Example 64]
0.0143 µM | 0.0019 µM | CN[C@@H](C)C(=O)N[C@H](C(=O)N1C[C@@H]2C[C@H]1C(=O)N[C@@H](Cc1ccc3ccccc3c1)C(=O)N[C@H](C(=O)O)Cc1ccc(cc1)C(=O)N[C@H]1C[C@@H](C(=O)N[C@@H](Cc3ccc4ccccc4c3)C(=O)N[C@H](C(=O)O)Cc3ccc(cc3)OC/C=C/CO2)N(C(=O)[C@@H](NC(=O)[C@H](C)NC)C(C)(C)C)C1)C(C)O (some centres unmarked) [Example 65]
0.0052 µM | 0.0013 µM | CN[C@@H](C)C(=O)N[C@H](C(=O)N1C[C@@H]2C[C@H]1C(=O)N[C@@H](Cc1ccc3ccccc3c1)C(=O)N[C@H](C(=O)O)Cc1ccc(cc1)C(=O)N[C@H]1C[C@@H](C(=O)N[C@@H](Cc3ccc4ccccc4c3)C(=O)N[C@H](C(=O)O)Cc3ccc(cc3)OC/C=C/CO2)N(C(=O)[C@@H](NC(=O)[C@H](C)NC)C(C)(C)C)C1)C1CCOCC1 [Example 66]
0.0155 µM | 0.0027 µM | CN[C@@H](C)C(=O)N[C@H](C(=O)N1C[C@@H]2C[C@H]1C(=O)N[C@@H](Cc1ccc3ccccc3c1)C(=O)N[C@H](C(=O)O)Cc1ccc(cc1)C(=O)N[C@H]1C[C@@H](C(=O)N[C@@H](Cc3ccc4ccccc4c3)C(=O)N[C@H](C(=O)O)Cc3ccc(cc3)OC/C=C/CO2)N(C(=O)[C@@H](NC(=O)[C@H](C)NC)C(C)(C)C)C1)C(C)C [Example 68]
0.0164 µM | 0.0032 µM | CN[C@@H](C)C(=O)N[C@@H](CC1CCCCC1)C(=O)N1C[C@@H]2C[C@H]1C(=O)N[C@@H](Cc1ccc3ccccc3c1)C(=O)N[C@H](C(=O)O)Cc1ccc(cc1)C(=O)N[C@H]1C[C@@H](C(=O)N[C@@H](Cc3ccc4ccccc4c3)C(=O)N[C@H](C(=O)O)Cc3ccc(cc3)OC/C=C/CO2)N(C(=O)[C@@H](NC(=O)[C@H](C)NC)C(C)(C)C)C1 [Example 69]
0.0093 µM | 0.002 µM | CN[C@@H](C)C(=O)N[C@@H](Cc1ccccc1)C(=O)N1C[C@@H]2C[C@H]1C(=O)N[C@@H](Cc1ccc3ccccc3c1)C(=O)N[C@H](C(=O)O)Cc1ccc(cc1)C(=O)N[C@H]1C[C@@H](C(=O)N[C@@H](Cc3ccc4ccccc4c3)C(=O)N[C@H](C(=O)O)Cc3ccc(cc3)OC/C=C/CO2)N(C(=O)[C@@H](NC(=O)[C@H](C)NC)C(C)(C)C)C1 [Example 70]
0.0279 µM | 0.0037 µM | CN[C@@H](C)C(=O)N[C@H](C(=O)N1C[C@@H]2C[C@H]1C(=O)N[C@@H](Cc1ccc3ccccc3c1)C(=O)N[C@H](C(=O)O)Cc1ccc(cc1)C(=O)N[C@H]1C[C@@H](C(=O)N[C@@H](Cc3ccc4ccccc4c3)C(=O)N[C@H](C(=O)O)Cc3ccc(cc3)OC/C=C/CO2)N(C(=O)[C@@H](NC(=O)[C@H](C)NC)C(C)(C)C)C1)C1CCCCC1 [Example 71]
0.0485 µM | 0.0093 µM | CN[C@@H](C)C(=O)N[C@@H](CC(N)=O)C(=O)N1C[C@@H]2C[C@H]1C(=O)N[C@@H](Cc1ccc3ccccc3c1)C(=O)N[C@H](C(=O)O)Cc1ccc(cc1)C(=O)N[C@H]1C[C@@H](C(=O)N[C@@H](Cc3ccc4ccccc4c3)C(=O)N[C@H](C(=O)O)Cc3ccc(cc3)OC/C=C/CO2)N(C(=O)[C@@H](NC(=O)[C@H](C)NC)C(C)(C)C)C1 [Example 72]
0.0293 µM | 0.44 µM | CN[C@@H](C)C(=O)N[C@H](C(=O)N1C[C@@H]2C[C@H]1C(=O)N[C@@H](Cc1ccc3ccccc3c1)C(=O)N[C@H](C(=O)O)Cc1ccc(cc1)OC/C=C/CO[C@H]1C[C@@H](C(=O)N[C@@H](Cc3ccc4ccccc4c3)C(=O)N[C@H](C(=O)O)Cc3ccc(cc3)C(=O)N2)N(C(=O)[C@@H](NC(=O)[C@H](C)N(C)C(C)=O)C(C)(C)C)C1)C(C)(C)C [Example 73]
0.0097 µM | 0.0017 µM | CN[C@@H](C)C(=O)N[C@H](C(=O)N1C[C@@H]2C[C@H]1C(=O)N[C@@H](Cc1ccc3ccccc3c1)C(=O)N[C@H](C(=O)O)Cc1ccc(cc1)C(=O)N[C@H]1C[C@@H](C(=O)N[C@@H](Cc3ccc4ccccc4c3)C(=O)N[C@H](C(=O)O)Cc3ccc(cc3)OC/C=C/CO2)N(C(=O)[C@@H](NC(=O)[C@H](C)NC)C(C)(C)C)C1)C(C)C [Example 75]
0.293 µM | 0.0146 µM | CN[C@@H](C)C(=O)N[C@H](C(=O)N[C@H]1C/C=C\CC[C@@H](C(=O)O)NC(=O)[C@H](Cc2ccc3ccccc3c2)NC(=O)[C@@H]2CN(CCN2C(=O)[C@@H](NC(=O)[C@H](C)NC)C(C)(C)C)C(=O)CNC(=O)CC[C@@H](C(=O)O)NC(=O)[C@H](Cc2ccc3ccccc3c2)NC1=O)C(C)(C)C [Example 76]
0.206 µM | 0.0121 µM | CN[C@@H](C)C(=O)N[C@H](C(=O)N[C@H]1C/C=C/CC[C@@H](C(=O)O)NC(=O)[C@H](Cc2ccc3ccccc3c2)NC(=O)[C@@H]2CN(CCN2C(=O)[C@@H](NC(=O)[C@H](C)NC)C(C)(C)C)C(=O)CNC(=O)CC[C@@H](C(=O)O)NC(=O)[C@H](Cc2ccc3ccccc3c2)NC1=O)C(C)(C)C [Example 77]
0.0824 µM | 0.0047 µM | CN[C@@H](C)C(=O)N[C@H](C(=O)N[C@H]1C/C=C/COc2ccc(cc2)C[C@@H](C(=O)O)NC(=O)[C@H](Cc2ccc3ccccc3c2)NC(=O)[C@@H]2CN(CCN2C(=O)[C@@H](NC(=O)[C@H](C)NC)C(C)(C)C)C(=O)CNC(=O)CC[C@@H](C(=O)O)NC(=O)[C@H](Cc2ccc3ccccc3c2)NC1=O)C(C)(C)C [Example 78]
0.0443 µM | 0.0056 µM | CN[C@@H](C)C(=O)NC(C(=O)N1C[C@@H]2C[C@H]1C(=O)N[C@@H](Cc1ccc3ccccc3c1)C(=O)N[C@H](C(=O)O)Cc1ccc(cc1)OC/C=C/C(=O)N1CCN(C(=O)[C@@H](NC(=O)[C@H](C)NC)C(C)(C)C)[C@@H](C1)C(=O)N[C@@H](Cc1ccc3ccccc3c1)C(=O)N[C@H](C(=O)O)CCC(=O)N2)C(C)(C)C (some centres unmarked) [Example 79]
0.373 µM | 0.0068 µM | CN[C@@H](C)C(=O)N[C@H](C(=O)N[C@H]1C/C=C/CC[C@@H](C(=O)O)NC(=O)[C@H](Cc2ccc3ccccc3c2)NC(=O)[C@@H]2CN(CCNC(=O)CC[C@@H](C(=O)O)NC(=O)[C@H](Cc3ccc4ccccc4c3)NC1=O)CCN2C(=O)[C@@H](NC(=O)[C@H](C)NC)C(C)(C)C)C(C)(C)C [Example 80]
0.026 µM | 0.0011 µM | CN[C@@H](C)C(=O)N[C@H](C(=O)N[C@H]1C/C=C/CC[C@@H](C(=O)O)NC(=O)[C@H](Cc2ccccc2)NC(=O)[C@@H]2CN(CCNC(=O)CC[C@@H](C(=O)O)NC(=O)[C@H](Cc3ccccc3)NC1=O)CCN2C(=O)[C@@H](NC(=O)[C@H](C)NC)C(C)C)C(C)C [Example 81]
1.1 µM | 2.09 µM | CC(C)[C@H](NC(=O)[C@H](C)N(C)C(=O)OC(C)(C)C)C(=O)N[C@H]1C/C=C/CC[C@@H](C(=O)O)NC(=O)[C@H](Cc2ccccc2)NC(=O)[C@@H]2CN(CCNC(=O)CC[C@@H](C(=O)OC(C)(C)C)NC(=O)[C@H](Cc3ccccc3)NC1=O)CCN2C(=O)[C@@H](NC(=O)[C@H](C)N(C)C(=O)OC(C)(C)C)C(C)C [Example 82]
0.0029 µM | 0.0013 µM | CN[C@@H](C)C(=O)N[C@H](C(=O)N1C[C@@H]2C[C@H]1C(=O)N[C@@H](Cc1ccc3ccccc3c1)C(=O)NC(C(=O)O)Cc1ccc(cc1)OC/C=C/CO[C@H]1C[C@@H](C(=O)N[C@@H](Cc3ccc4ccccc4c3)C(=O)N[C@H](C(=O)O)Cc3ccc(cc3)O2)N(C(=O)[C@@H](NC(=O)[C@H](C)NC)C(C)(C)C)C1)C(C)(C)C (some centres unmarked) [Example 84]
